Results published in US20230167088A1, “1-PYRAZINYLPYRAZOLYL-3-OXYALKYL ACIDS AND THEIR DERIVATIVES, AND THEIR USE FOR CONTROL OF UNDESIRED PLANT GROWTH” (BAYER AKTIENGESELLSCHAFT, priority 2020, published 2023).

Tests used:
DIGSA [1] = assay: Herbicidal post-emergence action 1b (twin sowing, 1280 g/ha); format: in vivo, Digitaria sanguinalis; conditions: dosage 1280 g/ha, visual rating about 3 weeks after treatment
Procedure: (§1) [table] b) Seeds of mono- and dicotyledonous weed plants are placed in plastic pots in sandy loam soil (twin sowing with one species each of mono- or dicotyledonous weed plants per pot), covered with soil and cultivated in a greenhouse under controlled growth conditions. 2 to 3 weeks after sowing, the test plants are treated at the one-leaf stage. The compounds of the invention, formulated in the form of wettable powders (WP) or as emulsion concentrates (EC), are applied to the green parts of the plants as aqueous suspension or emulsion with addition of 0.5% additive at a water application rate equivalent to 600 litres per hectare. After the test plants have been kept in the greenhouse under optimum growth conditions for about 3 weeks, the activity of the preparations is rated visually in comparison to untreated controls. For example, 100% activity=the plants have died, 0% activity=like control plants. Tables A16 to A21 below show the effects of selected compounds of the general formula (I) according to Tables 1 and 2 on various harmful plants and at an application rate corresponding to 1280 g/ha, which were obtained by the experimental procedure mentioned above.

ECHCG [2] = assay: Herbicidal pre-emergence action 2b (doubly sown, 1280 g/ha); format: in vivo, Echinochloa crus-galli; conditions: doubly sown pots, dosage 1280 g/ha, visual scoring after about 3 weeks
Outline: (§2)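 Read-out: visual percentage damage relative to untreated controls, scored after roughly 3 weeks in the greenhouse, where 100% means plants died and 0% equals control. Seeds were sown two species per pot in sandy loam and covered before the compounds, formulated as WP or EC with 0.5% additive, were sprayed onto the soil at 600 L/ha.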

ABUTH = assay: Herbicidal post-emergence action 1b (twin sowing, 1280 g/ha); format: in vivo, Abutilon theophrasti; conditions: dosage 1280 g/ha, visual rating about 3 weeks after treatment
Procedure: as §1

STEME [3] = assay: Herbicidal pre-emergence action 2b (doubly sown, 1280 g/ha); format: in vivo, Stellaria media; conditions: doubly sown pots, dosage 1280 g/ha, visual scoring after about 3 weeks
Outline: as §2

POAAN [4] = assay: as above; format: in vivo, Poa annua; conditions: doubly sown pots, dosage 1280 g/ha, visual scoring after about 3 weeks
Outline: as §2

MATIN [5] = assay: Herbicidal post-emergence action 1b (twin sowing, 1280 g/ha); format: in vivo, Matricaria inodora; conditions: dosage 1280 g/ha, visual rating about 3 weeks after treatment
Procedure: as §1

STEME [6] = assay: as above; format: in vivo, Stellaria media; conditions: dosage 1280 g/ha, visual rating about 3 weeks after treatment
Procedure: as §1

DIGSA [7] = assay: Herbicidal pre-emergence action 2b (doubly sown, 1280 g/ha); format: in vivo, Digitaria sanguinalis; conditions: doubly sown pots, dosage 1280 g/ha, visual scoring after about 3 weeks
Source text: [table] b) Seeds of mono- and dicotyledonous weed plants are placed in plastic pots in sandy loam soil (doubly sown with one species each of mono- or dicotyledonous weed plants per pot) and covered with soil. The compounds of the invention, formulated in the form of wettable powders (WP) or as emulsion concentrates (EC), are then applied onto the surface of the covering soil as aqueous suspension or emulsion with addition of 0.5% additive at a water application rate equivalent to 600 litres per hectare. After the treatment, the pots are placed in a greenhouse and kept under good growth conditions for the trial plants. After about 3 weeks, the effect of the preparations is scored visually in comparison with untreated controls as percentages. For example, 100% activity=the plants have died, 0% activity=like control plants. Tables B16 to B21 below show the effects of selected compounds of the general formula (I) according to Tables 1 and 2 on various harmful plants and at an application rate corresponding to 1280 g/ha, which were obtained by the experimental procedure mentioned above.

MATIN [8] = assay: as above; format: in vivo, Matricaria inodora; conditions: doubly sown pots, dosage 1280 g/ha, visual scoring after about 3 weeks
Outline: as §2

AMARE = assay: as above; format: in vivo, Amaranthus retroflexus; conditions: doubly sown pots, dosage 1280 g/ha, visual scoring after about 3 weeks
Outline: as §2

POAAN [9] = assay: Herbicidal post-emergence action 1b (twin sowing, 1280 g/ha); format: in vivo, Poa annua; conditions: dosage 1280 g/ha, visual rating about 3 weeks after treatment
Outline: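 Sow paired weed species in sandy loam pots and grow in the greenhouse; at the one-leaf stage (2–3 weeks) spray green parts with compound suspension or emulsion containing 0.5% additive at 600 L water/ha; keep about 3 weeks, then score damage visually relative to untreated plants.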

ECHCG [10] = assay: as above; format: in vivo, Echinochloa crus-galli; conditions: dosage 1280 g/ha, visual rating about 3 weeks after treatment
Procedure: as §1

In the case of `COC(=O)[C@H](C)Oc1nn(-c2cnccn2)c(-c2ccc(F)nc2)c1Br` [Example I-18], the “Post-emergence action at 1280 g/ha against DIGSA in %” value (DIGSA [1]) is reported as 100%, the “Pre-emergence action at 1280 g/ha against ECHCG in %” value (ECHCG [2]) is reported as 100% and the “Post-emergence action at 1280 g/ha against ABUTH in %” value (ABUTH) is reported as 90%. For the same compound, the “Pre-emergence action at 1280 g/ha against STEME in %” value (STEME [3]) was 100%, the “Pre-emergence action at 1280 g/ha against POAAN in %” value (POAAN [4]) was 100% and the “Post-emergence action at 1280 g/ha against MATIN in %” value (MATIN [5]) was 90%. The “Post-emergence action at 1280 g/ha against STEME in %” value (STEME [6]) was 100%, the “Pre-emergence action at 1280 g/ha against DIGSA in %” value (DIGSA [7]) was 100% and the “Pre-emergence action at 1280 g/ha against MATIN in %” value (MATIN [8]) was 90%. For the same compound, the “Pre-emergence action at 1280 g/ha against AMARE in %” value (AMARE) was 100% and the “Post-emergence action at 1280 g/ha against POAAN in %” value (POAAN [9]) was 100%.
`CC(Oc1nn(-c2cnccn2)c(-c2ccc(F)nc2)c1Br)C(=O)O` (racemic) [Example I-24] was tested, and the “Post-emergence action at 1280 g/ha against ABUTH in %” value (ABUTH) was 90%, the “Pre-emergence action at 1280 g/ha against STEME in %” value (STEME [3]) was 90% and the “Pre-emergence action at 1280 g/ha against POAAN in %” value (POAAN [4]) was 100%. For the same compound, the “Pre-emergence action at 1280 g/ha against DIGSA in %” value (DIGSA [7]) was 100%, the “Pre-emergence action at 1280 g/ha against AMARE in %” value (AMARE) was 90% and the “Post-emergence action at 1280 g/ha against POAAN in %” value (POAAN [9]) was 100%.
With `COC(=O)[C@@H](C)Oc1nn(-c2cnccn2)c(-c2cccnc2)c1Br` [Example I-38] the “Post-emergence action at 1280 g/ha against DIGSA in %” value (DIGSA [1]) was 90%, the “Pre-emergence action at 1280 g/ha against ECHCG in %” value (ECHCG [2]) was 100% and the “Pre-emergence action at 1280 g/ha against STEME in %” value (STEME [3]) was 100%. The “Pre-emergence action at 1280 g/ha against POAAN in %” value (POAAN [4]) was 100%, the “Post-emergence action at 1280 g/ha against MATIN in %” value (MATIN [5]) was 90% and the “Post-emergence action at 1280 g/ha against STEME in %” value (STEME [6]) was 100%. For the same compound, the “Pre-emergence action at 1280 g/ha against DIGSA in %” value (DIGSA [7]) was 100%, the “Post-emergence action at 1280 g/ha against ECHCG in %” value (ECHCG [10]) was 100% and the “Pre-emergence action at 1280 g/ha against MATIN in %” value (MATIN [8]) was 100%. For the same compound, the “Pre-emergence action at 1280 g/ha against AMARE in %” value (AMARE) was 100% and the “Post-emergence action at 1280 g/ha against POAAN in %” value (POAAN [9]) was 100%.
`CC(C)=NOC(=O)COc1nn(-c2cnccn2)c(-c2ccc(F)nc2)c1Br` [Example I-69] was tested, and the “Post-emergence action at 1280 g/ha against DIGSA in %” value (DIGSA [1]) was 90%, the “Pre-emergence action at 1280 g/ha against ECHCG in %” value (ECHCG [2]) was 100% and the “Pre-emergence action at 1280 g/ha against STEME in %” value (STEME [3]) was 100%. The “Pre-emergence action at 1280 g/ha against POAAN in %” value (POAAN [4]) was 100%, the “Post-emergence action at 1280 g/ha against MATIN in %” value (MATIN [5]) was 90% and the “Post-emergence action at 1280 g/ha against STEME in %” value (STEME [6]) was 90%. The “Pre-emergence action at 1280 g/ha against DIGSA in %” value (DIGSA [7]) was 100%, the “Post-emergence action at 1280 g/ha against ECHCG in %” value (ECHCG [10]) was 90% and the “Pre-emergence action at 1280 g/ha against MATIN in %” value (MATIN [8]) was 100%. For the same compound, the “Pre-emergence action at 1280 g/ha against AMARE in %” value (AMARE) was 100% and the “Post-emergence action at 1280 g/ha against POAAN in %” value (POAAN [9]) was 90%.
